Test results taken from US7754741B2, “Pyridine derivatives as fungicidal compounds” (Bayer Cropscience S.A., priority 2003, dated 2010).

What was measured:
[1] = tested on: Pyrenophora teres; assay: In vivo test on Pyrenophora teres (barley net blotch); settings: Pyrenophora teres, 288 h; dose 330 ppm; barley plants sprayed 24 hours before contamination; grading 12 days after contamination vs control plants; read-out: protection (good (at least 50%) to total)
Procedure: In Vivo Test on Pyrenophora teres (Barley Net Blotch)
(§1) The active ingredient tested is prepared by potter homogenisation in a concentrated suspension type formulation at 100 g/l. This suspension is then diluted with water to obtain the desired active material concentration.
Barley plants (Express variety) in starter cups, sown on a 50/50 peat soil-pozzolana substrate and grown at 12° C., are treated at the 1-leaf stage (10 cm tall) by spraying with the aqueous suspension described above. Plants, used as controls, are treated with an aqueous solution not containing the active material.
After 24 hours, the plants are contaminated by spraying them with an aqueous suspension of Pyrenophora teres spores (12,000 spores per ml). The spores are collected from a 12-day-old culture The contaminated barley plants are incubated for 24 hours at about 20° C. and at 100% relative humidity, and then for 12 days at 80% relative humidity.

[2] = tested on: Alternaria brassicae; assay: In vivo test on Alternaria brassicae (leaf spot of crucifers); settings: Alternaria brassicae; dose 330 ppm; radish plants sprayed 24 hours before contamination; grading 6 to 7 days after contamination vs control plants; read-out: protection (good (at least 50%) to total)
Procedure: In Vivo Test on Alternaria brassicae (Leaf Spot of crucifers)
as §1
Radish plants (Pernot variety) in starter cups, sown on a 50/50 peat soil-pozzolana substrate and grown at 18-20° C., are treated at the cotyledon stage by spraying with the aqueous suspension described above.
Plants, used as controls, are treated with an aqueous solution not containing the active material.
After 24 hours, the plants are contaminated by spraying them with an aqueous suspension of Alternaria brassicae spores (40,000 spores per cm^3). The spores are collected from a 12-13-day-old culture.
The contaminated radish plants are incubated for 6-7 days at about 18° C., under a humid atmosphere.
Grading is carried out 6 to 7 days after the contamination, in comparison with the control plants.

SMILES | pest or weed control at 330 ppm [1] | pest or weed control at 330 ppm [2]
Cc1nnsc1C(=O)NCCc1ncc(C(F)(F)F)cc1Cl [Compound P-1] | ≥ 50% | –
Cc1nc(CCNC(=O)c2cn(C)nc2C(F)(F)F)c(Cl)cc1Cl [Compound J-25] | ≥ 50% | ≥ 50%
O=C(NCCc1ncc(C(F)(F)F)cc1Cl)c1cc(-c2cccc(Cl)c2)oc1C(F)(F)F [Compound B-9] | – | ≥ 50%
O=C(NCCc1ncc(C(F)(F)F)cc1Cl)c1ccno1 [Compound N-1] | – | ≥ 50%
O=C(NCCc1ncc(C(F)(F)F)cc1Cl)c1ccc(-c2ccccn2)s1 [Compound C-6] | – | ≥ 50%
O=C(NCCc1ncc(C(F)(F)F)cc1Cl)c1ncc(C(F)(F)F)cc1Cl [Compound Q-1] | – | ≥ 50%
Cc1nn(C)c(F)c1C(=O)NCCc1nc(Cl)c(Cl)cc1Cl [Compound J-50] | ≥ 50% | ≥ 50%
O=C(NCCc1ncc(C(F)(F)F)cc1Cl)c1cnn(-c2ccc(Cl)cc2)c1C(F)(F)F [Compound J-5] | – | ≥ 50%
Cn1cc(C(=O)NCCc2ncc(C(F)(F)F)cc2Cl)c(C(F)(F)F)n1 [Compound J-54] | ≥ 50% | –
Cc1noc(C)c1C(=O)NCCc1ncc(C(F)(F)F)cc1Cl [Compound M-2] | – | ≥ 50%
CCCc1c(C(=O)NCCc2ncc(C(F)(F)F)cc2Cl)cnn1-c1ccc(Cl)cc1 [Compound J-12] | – | ≥ 50%
Cc1ccccc1-n1ncc(C(=O)NCCc2ncc(C(F)(F)F)cc2Cl)c1C [Compound J-10] | ≥ 50% | –
O=C(NCCc1ncc(C(F)(F)F)cc1Cl)c1cc(-c2ccc(Cl)cc2)oc1C(F)(F)F [Compound B-2] | – | ≥ 50%
Cn1cc(C(=O)NCCc2ccc(Cl)cn2)c(C(F)F)n1 [Compound J-36] | ≥ 50% | ≥ 50%
O=C(NCCc1ncc(C(F)(F)F)cc1Cl)c1nc(Cl)ccc1Cl [Compound Q-2] | – | ≥ 50%
O=C(NCCc1ncc(C(F)(F)F)cc1Cl)c1cnn(-c2ccccc2)c1C(F)(F)F [Compound J-4] | – | ≥ 50%
O=C(NCCc1nc(F)c(Cl)cc1F)c1sccc1I [Compound C-23] | ≥ 50% | ≥ 50%
Cc1nc(CCNC(=O)c2sccc2I)c(Cl)cc1Cl [Compound C-21] | – | ≥ 50%
O=C(NCCc1ncc(C(F)(F)F)cc1Cl)c1ccoc1 [Compound B-3] | ≥ 50% | –
Cc1cc(C(=O)NCCc2nc(C)c(Cl)cc2Cl)c(C)o1 [Compound B-16] | ≥ 50% | ≥ 50%
O=C(NCCc1ncc(C(F)(F)F)cc1Cl)c1ccnn1-c1ccccc1 [Compound K-5] | – | ≥ 50%
Cn1ccc(I)c1C(=O)NCCc1ncc(C(F)(F)F)cc1Cl [Compound F-3] | ≥ 50% | ≥ 50%
O=C(NCCc1ncc(C(F)(F)F)cc1Cl)c1ncoc1-c1ccccc1 [Compound G-1] | ≥ 50% | ≥ 50%
O=C(NCCc1ncc(C(F)(F)F)cc1Cl)c1cc(-c2ccccc2)oc1C(F)(F)F [Compound B-10] | – | ≥ 50%
O=C(c1ccoc1I)N(CCc1ncc(C(F)(F)F)cc1Cl)C1CC1 [Compound B-15] | ≥ 50% | –
Cc1ccoc1C(=O)NCCc1ncc(C(F)(F)F)cc1Cl [Compound A-3] | – | ≥ 50%
Cc1cc(C(=O)NCCc2ncc(C(F)(F)F)cc2Cl)cc(Cl)n1 [Compound S-2] | ≥ 50% | ≥ 50%

SMILES | pest or weed control at 330 ppm [1] | pest or weed control at 330 ppm [2]
O=C(c1sccc1I)N(CCc1ncc(C(F)(F)F)cc1Cl)C1CC1 [Compound C-20] | ≥ 50% | –
O=C(NCCc1nc(Cl)ccc1Cl)c1sccc1I [Compound C-18] | – | ≥ 50%
COc1ccc(-n2ncc(C(=O)NCCc3ncc(C(F)(F)F)cc3Cl)c2C)cc1 [Compound J-8] | ≥ 50% | –
O=C(NCCc1ncc(C(F)(F)F)cc1Cl)c1cccnc1Sc1ccccc1 [Compound R-6] | – | ≥ 50%
Cc1nn(C)c(F)c1C(=O)N(CCc1ncc(C(F)(F)F)cc1Cl)C1CC1 [Compound J-52] | ≥ 50% | ≥ 50%
O=C(NCCc1ncc(C(F)(F)F)cc1Cl)c1cccnc1Oc1ccc(Cl)cc1 [Compound R-7] | – | ≥ 50%
Cc1nn(-c2ccccc2)nc1C(=O)NCCc1ncc(C(F)(F)F)cc1Cl [Compound O-1] | – | ≥ 50%
Cn1cc(C(=O)N(CCc2ncc(C(F)(F)F)cc2Cl)C2CC2)c(C(F)(F)F)n1 [Compound J-23] | ≥ 50% | –
Cc1nn(C)c(F)c1C(=O)NCCc1ncc(Cl)cc1F [Compound J-49] | ≥ 50% | ≥ 50%
Cn1cc(C(=O)NCCc2ccc(C(F)(F)F)c(Cl)n2)c(C(F)(F)F)n1 [Compound J-24] | ≥ 50% | ≥ 50%
O=C(NCCc1nc(F)c(Cl)cc1Cl)c1sccc1I [Compound C-22] | ≥ 50% | –
CC(C)(C)c1cc(C(=O)NCCc2ncc(C(F)(F)F)cc2Cl)n(Cc2ccccc2)n1 [Compound K-3] | – | ≥ 50%
O=C(NCCc1ncc(C(F)(F)F)cc1Cl)c1cnn(-c2ccc([N+](=O)[O-])cc2)c1C(F)(F)F [Compound J-13] | – | ≥ 50%
O=C(NCCc1ncc(C(F)(F)F)cc1Cl)c1cccnc1 [Compound R-5] | – | ≥ 50%
O=C(NCCc1ncc(C(F)(F)F)cc1Cl)c1sccc1Br [Compound C-5] | ≥ 50% | ≥ 50%
Cn1ncc(C(=O)NCCc2ncc(C(F)(F)F)cc2Cl)c1Cl [Compound J-6] | – | ≥ 50%
Cn1cc(C(=O)NCCc2nc(F)c(Cl)cc2Cl)c(C(F)(F)F)n1 [Compound J-26] | ≥ 50% | ≥ 50%
Cc1cc(C(=O)NCCc2ncc(C(F)(F)F)cc2Cl)nn1C(C)(C)C [Compound I-1] | ≥ 50% | ≥ 50%
Cc1nc(C(F)(F)F)ccc1C(=O)NCCc1ncc(C(F)(F)F)cc1Cl [Compound R-15] | ≥ 50% | ≥ 50%
CS(=O)(=O)c1csc(C(=O)NCCc2ncc(C(F)(F)F)cc2Cl)c1Cl [Compound C-8] | – | ≥ 50%
O=C(NCCc1ncc(C(F)(F)F)cc1Cl)c1ccnc(Cl)c1 [Compound S-5] | – | ≥ 50%
O=C(NCCc1ccc(Cl)cn1)c1sccc1I [Compound C-17] | ≥ 50% | –
Cc1oc(-c2ccccc2)cc1C(=O)NCCc1ncc(C(F)(F)F)cc1Cl [Compound B-5] | – | ≥ 50%
CC(C)ON=CCc1cnc(CCNC(=O)c2cn(C)nc2C(F)F)c(Cl)c1 [Compound J-38] | – | ≥ 50%
Cc1c(C(=O)NCCc2ncc(C(F)(F)F)cc2Cl)cnn1-c1ccc(F)cc1 [Compound J-7] | ≥ 50% | –
Cc1onc(-c2ccccc2Cl)c1C(=O)NCCc1ncc(C(F)(F)F)cc1Cl [Compound M-4] | ≥ 50% | ≥ 50%
CCn1nc(C)c(Br)c1C(=O)NCCc1ncc(C(F)(F)F)cc1Cl [Compound K-6] | ≥ 50% | ≥ 50%
